Legend:
[1] = test system: neurons acutely dissociated from mouse midbrain substantia nigra pars reticulata; test: Application of fluorescent sugar derivatives to acutely dissociated normal neurons (confocal imaging of uptake); format: cell-based
Procedure: This was conducted according to a method described in WO 2010/16587.
Living neurons were acutely dissociated from mouse midbrain substantia nigra pars reticulata, and to which a mixed solution containing 100 μM of 2-PBDG and 20 μM of 2-TRLG was administered at 37° C. for 5 minutes. FIGS. 1A to C represent confocal microscopic images taken immediately before this. A is a fluorescence image in blue wavelength region (Blue channel, wavelength range: 415-580 nm). The position of cells is recognized by autofluorescence. The fluorescence signal intensity is represented by pseudocolor. B is a fluorescence image in red wavelength region (Red channel, 580-740 nm). A and B were obtained both by simultaneous excitation using 405 nm Blue diode laser at an intensity of 60%, wherein photomultipliers (PMT) 1 and 2 were used respectively, and the detection sensitivity of PMT2 was raised higher than PMT1 so that the presence or absence of invasion of 2-TRLG can be detected in a sensitive manner. C is a view in which the bright field image is overlaid on the fluorescence images of A and B.
An experiment was conducted in the same manner as in Example 2.
FIGS. 2A to C represent confocal microscopic images immediately before administration of a mixed solution containing 100 μM of 2-PBLG and 20 μM of 2-TRLG at 37° C. to acutely dissociated neurons of mouse midbrain substantia nigra pars reticulata for 5 minutes.
FIG. 3 represents confocal microscopic images before and after administration of a mixed solution containing 100 μM of 2-HCDG and 20 μM of 2-TRLG at 37° C. for 3 minutes to neurons acutely dissociated from mouse midbrain substantia nigra pars reticulata. A and B are fluorescence images acquired before administration in Blue channel (415-580 nm) and Red channel (580-740 nm), respectively. The excitation wavelength is 405 nm. C is an image of differential interference (Differential Interference contrast, DIC). D is an overlay of the above-described images. E to H are the same as A to D, excepting that E to H are images acquired 4 minutes after initiation of washout of the fluorescence tracer solution after administration of the 2-HCDG+2-TRLG fluorescence tracer solution at 37° C. for 3 minutes. […] Since invasion of 2-TRLG into a cell is not observed, the plasma membrane of the neuron is thought to be maintained intactly.
Since the optimal excitation wavelength was as very low as 320 nm in this experiment, an image was acquired by Retiga-2000R CCD camera manufactured by Q-imaging via a custom-order filter constituted of an excitation filter (320 nm) (half width: 40 nm), a fluorescence filter (435 nm) (half width: 40 nm) and a dichroic mirror (409 nm), by a xenon lamp, using Nikon Ti-E real time deconvolution microscope.

[2] = test system: mouse insulinoma cells (MIN6); test: Uptake into MIN6 cells and influence of glucose transport inhibitors (fluorescent microplate reader); format: cell-based
Procedure: Cryopreserved MIN6 cells (cells donated from Professor Miyazaki Junichi of Osaka University and cultured 5 to 8 passages) were subjected to culture according to an ordinary method, and cultures at 7 to 9 passages were used in experiments.
NaCl 129.0 mM, KCl 4.75 mM, KH2 PO4 1.19 mM, MgSO4.7H2O 1.19 mM, CaCl2.2H2O 1.0 mM, NaHCO3 5.02 mM, D-Glucose 5.6 mM, HEPES 10 mM (pH was adjusted to 7.35 with 1M NaOH). For inhibiting entrance and elimination of a fluorescently labeled glucose via gap junction/hemichannel, 0.1 mM Carbenoxolone (SIGMA #C4790) was added. This KRB solution was used as a solution for preparing a 2-PBLG solution.
2-PBDG and 2-PBLG were charged into wells at the third column and the fifth column, respectively, using a 8-channel pipette. Before administration, the autofluorescence of each well was measured beforehand by a fluorescent micro plate reader (Flex Station, manufactured by Molecular Device). The measurement conditions include Bottom Read, Ex 401 nm, Em 453 nm, Cut off 420 nm, Averaging 3, and high sensitivity of Photomultiplier. In the measurement method, Well Scan Mode was used. In Well Scan Mode, the inside of one well was divided into 9 regions of interest (diameter: 1.5 mm) and measurement was performed each independently.
Next, in wells (3C, 3E, 3G) for measuring the effect of a glucose transport inhibitor phloretin, phloretin (final 150 μM) was administered beforehand from 5 minutes prior to administration of 2-PBDG, while KRB was added to other wells (3B, 3D, 3F). Similar operation was also conducted on the fifth column where 2-PBLG was to be administered. 2-PBDG and 2-PBLG were administrated at 37° C. for 10 minutes.
After completion of administration, a diluting operation of the fluorescence solution in the well using 300 μL of a KRB solution was repeated set times each for 30 seconds. The repetition time was determined so that the fluorescence intensity detected by wells of A-th row and H-th row set as a control group was equivalent to the fluorescence intensity of a blank well containing no cell, and complete washout was confirmed in every experiment. In the case of 2-PBDG and 2-PBLG, this washout process needed 8 minutes, thus, measurement of fluorescence after administration was carried out 9 minutes after.
According to this method, even if cells having undergone a loss of the plasma membrane contacted 2-PBDG and 2-PBLG and once took up these compounds into themselves, it is judged that contribution of the increase in the fluorescence intensity to the whole observation area was ignorable level since these compounds had already been washed out of the cells when performing the measurement. This was supported by a pharmacological inhibition experiment separately in which the increase in the fluorescence intensity almost completely disappeared in the presence of an inhibitor. The above-described method was conducted in the same manner also when other inhibitor, for example, cytochalasin B (10 μM) was added.
The change of fluorescence intensity by administration of a D-glucose derivative (2-PBDG), an L-glucose derivative (2-PBLG) and PB—NH2 prepared by amidating Pacific Blue (PB) chromophore group to MIN6 cells on day of 10 of culture and the effect by a glucose transport inhibitor were confirmed in the same manner as in Example 4. PB—NH2 has the following structure (Ex max. 402 nm, Em max. 451 nm).
An experiment was conducted in the same manner as in Example 4.
The experiment was carried out 3 times independently, and the same results were obtained in all cases. In the experiment of administration of 2-PBDM, excitation occurred at a maximum excitation light wavelength of 404 nm and fluorescence was acquired at a maximum emission wavelength of 453 nm.

O=C(NC1C(O)OC(CO)[C@H](O)C1O)c1cc2cc(F)c(O)c(F)c2oc1=O (stereo partly drawn) [2-PBLG, 2-Deoxy-2-((6,8-difluoro-7-hydroxycoumarin-3-yl)carboxamido)-L-glucose]
intracellular fluorescence intensity in Blue channel as compared with that before administration ([1]; 100 μM with 20 μM 2-TRLG, 37° C., 5 minutes, image 4 minutes after initiation of washout): scarcely increased | persistence of intracellular blue fluorescence after washout ([1]; images 8 and 20 minutes after initiation of washout): recovered to the autofluorescence level | decreased value of fluorescence intensity owing to phloretin (average) ([2]; 100 μM derivative, 150 μM phloretin, MIN6 day 10, increase without phloretin as reference): 20.0% | effect of phloretin on increase in fluorescence intensity (in words) ([2]; 100 μM derivative, phloretin 150 μM, MIN6 day 10): inhibited the increase in the fluorescence intensity by 2-PBLG slightly | difference between fluorescence intensity of 2-PBDG and of 2-PBLG ([2]; 100 μM each, absence of phloretin, 2-PBDG = 100%): no significant difference | fluorescence intensity after administration as compared with that before administration ([2]; 100 μM, MIN6 on day 10 of culture, Ex 401 nm, Em 453 nm): increases significantly

Reference: patent publication US10288604B2, “Method for imaging cell using fluorescence-labeled sugar derivative having coumarin derivative bound thereto, and imaging agent” (HIROSAKI UNIVERSITY, priority 2012, dated 2019)
